This is an account of results in patent publication US20240108734A1, “METHODS FOR TREATING AND AMELIORATING CANCER” (The Regents of the University of California, priority 2021, published 2024).

The test system of data set [1] is beta-catenin. Put plainly: FACS analysis of beta-catenin in normal HSC engrafted mouse model. Format: in vivo. As to conditions: human CD45+ cells and CD34+CD38- stem cells in BM. On the procedure: To assess WNT/beta-catenin activation in response to ADAR1 upregulation, a lentiviral TCF/LEF reporter was utilized in human blast crisis CML cells, K562^26. Lentiviral pCDH backbone, ADAR1^WT, shControl, and shADAR1 K562 stable cell lines were transduced with pGreenFire1-TCF/LEF1 reporter (SBI) lentivirus for 72-hours prior to CellTiter-Glo and One-Glo luciferase assays (Promega). A minimum of 50,000 cells were plated in duplicate, lysed according to the manufacturer's protocol, and measured using preloaded protocols on a Promega GloMax Discover Microplate Reader. One-Glo luciferase readouts were normalized to corresponding CellTiter-Glo values. Activated beta-catenin levels in HSC and HPCs were also quantified using a MACS Quant instrument following staining of cells with Viability Near-IR, Lineage PE-Cy5, CD45 BV510, CD34 BV421, CD38 PE-Cy7, GFP, and beta-catenin AF647 antibodies (Becton Dickinson, Inc). […] Mean fluorescence intensity (MF) of active beta-catenin in human CD45+ cells, HSCs (CD45^+CD34^+CD38^− Lin) and HPCs (CD45^+CD34^+CD38^+Lin^−) derived from engrafted bone marrow and spleen was determined with a Miltenyi Biotec MACS Quant flow cytometer.
In general terms: A flow cytometer gives signals particle by particle.

Data set [2] can be described thus: Tolerability (change in percent body weight) in xenograft models. The settings on record: mice transplanted with CB, BC CML or MF progenitors. The data set is classed as in vivo. An excerpt: FIG. 8A graphically illustrates data showing the change in percent body weight in mice transplanted with cord blood (CB) treated with vehicle (black), mismatch control (blue) or imetelstat (red);
FIG. 8B graphically illustrates data showing the change in percent body weight in mice transplanted with BC CML treated with vehicle (black), mismatch control (blue) or imetelstat (red);
FIG. 8C graphically illustrates data showing the change in percent body weight in mice transplanted with myelofibrosis (MF) progenitors treated with vehicle (black), mismatch control (blue) or imetelstat (red);

In another data set the test system is ADAR1p150. In words: ADAR1p150 expression in human CD45+ cells from treated BC CML mice. The data set is classed as in vivo. The settings on record: p=0.016. An excerpt: FIG. 5G. Boxplot depicting Log 2 (cpm) expression of ADAR1p150 by RNA-seq of human CD45^+ cells isolated from vehicle (red), mismatch control (blue) and imetelstat (green) treated BC CML mouse cells. The p-values from Student's t-tests are shown (Student's t-test: vehicle: p=0.337, imetelstat tx: p=0.016).

A further data set relates to TERT. Put plainly: RNA-seq of human CD45+ cells from treated BC CML mice. Format: in vivo. The settings on record: surviving human CD45+ cells; imetelstat compared with vehicle; p<0.01. On the procedure: For gene expression and RNA editing analysis, RNA editing sites were identified in REDIportal^34 (see the Supplementary Appendix). […] Gene Set Enrichment Analysis was performed with the Bioconductor package GSVA (see the Supplementary Appendix)^36. For in vitro and in vivo experiments, the Student's t-test was utilized to evaluate statistical significance of normally distributed data and Wilcoxon tests were utilized for non-normally distributed data with a p value of <0.05.
FastQC (Andrews, S. & Others. FastQC: a quality control tool for high throughput sequence data. (2010) was used to perform quality control on raw fastq files. Sequencing reads were aligned to the human genome (hg19) using the STAR v2.5.1a aligner^19. RSEM^20 v1.3.0 and GENCODE annotation (genocode.v19.annotation.gtf) were used for read and transcript quantification, and R BioConductor packages edgeR^21 and Limma^22 were used to implement the limma-voom^23 method for differential expression analysis at both the gene and transcript levels. The experimental design was modeled upon disease and tissue type (˜0+disease; ˜0+tissue; ˜0+disease+tissue). Significance was defined by using an adjusted p-value cut-off of 0.05 after multiple testing correction using a moderated t-statistic in Limma. […] Gene Set Enrichment Analysis was performed with the Bioconductor package GSVA^25.
FIG. 5C. […]

Data set [3] relates to beta-catenin. Put plainly: FACS analysis of activated beta-catenin in LSC engrafted mice. The data set is classed as in vivo, human. As to conditions: LSC engrafted mice BM; compared with vehicle controls. An excerpt:
A lentiviral TCF/LEF reporter was utilized in human blast crisis CML cells, K562^1. Lentiviral pCDH backbone, ADAR1^WT, shControl, and shADAR1 K562 stable cell lines were transduced with pGreenFire1-TCF/LEF1 reporter (SBI) lentivirus for 72-hours and analyzed using CellTiter-Glo and One-Glo luciferase assays (Promega). Mean fluorescence intensity (MFI) of activated beta-catenin in human CD45^+ cells, HSCs (CD45^+CD34^+CD38^− Lin) and HPCs (CD45^+CD34^+[…] Lin) from engrafted mouse bone marrow and spleen was analyzed with a Miltenyi Biotec MACS Quant flow cytometer after staining with lineage, CD45, CD34 and CD38 (BD antibodies) as well as LIVE/DEAD stain, followed by 1% paraformaldehyde fixation, permeabilization with saponin, and staining with an anti-active beta-catenin antibody (Millipore cat #05-665, and BD custom conjugation) (see Supplementary Appendix).
To assess WNT/beta-catenin activation in response to ADAR1 upregulation, a lentiviral TCF/LEF reporter was utilized in human blast crisis CML cells, K562^26. […] A minimum of 50,000 cells were plated in duplicate, lysed according to the manufacturer's protocol, and measured using preloaded protocols on a Promega GloMax Discover Microplate Reader. One-Glo luciferase readouts were normalized to corresponding CellTiter-Glo values. […]

For data set [4], the system named is normal cord blood CD34+ cells. In words: Normal HSC (cord blood CD34+) engrafted mouse model. Format: in vivo, mice. The method, then: FIG. 9A-B graphically illustrate data showing that normal HSC mouse xenograft models were established with normal cord blood CD34^+ cells by intrahepatic injection into neonatal Rag2^−/− c^−/− mice; FACS analysis of mice treated with either vehicle (0.9% NS), mismatch control (30 mg/kg) or imetelstat (30 mg/kg) followed by quantification of human CD45^+ cells in BM (FIG. 9A) and in spleen (FIG. 9B);

“Also recorded” adds a separate entry of the source.

As for imetelstat, the “beta-catenin expression / activity in normal HSC engrafted mice” value in the data set on beta-catenin [1] is recorded as “no significant decrease; also recorded: does not reduce; also recorded: no significant difference”. Further, the tolerability result in data set [2] is recorded as “well tolerated”. In addition, the ADAR1p150 expression result in the data set on ADAR1p150 is on record as “significantly reduced”. In the data set with TERT, the “TERT expression by RNA-seq” value was “reduction”. Also, the “activated beta-catenin expression / activity by FACS” value with beta-catenin [3] is reported as “significant reduction; also recorded: significantly reduced”. Moreover, the “effect on normal hematopoietic stem cells” value in data set [4] (at doses reducing malignant RNA editing) is “spared normal hematopoietic stem cells”. Moreover, the “normal cord blood engraftment (human CD45+ cells)” value in data set [4] (imetelstat 30 mg/kg vs vehicle and mismatch control, BM and spleen) was “no significant decrease; also recorded: does not reduce”.
